Assay [1] concerns the target T1, FLT3 (Homo sapiens, UniProt P36888).
T1 sequence (P36888 27-993): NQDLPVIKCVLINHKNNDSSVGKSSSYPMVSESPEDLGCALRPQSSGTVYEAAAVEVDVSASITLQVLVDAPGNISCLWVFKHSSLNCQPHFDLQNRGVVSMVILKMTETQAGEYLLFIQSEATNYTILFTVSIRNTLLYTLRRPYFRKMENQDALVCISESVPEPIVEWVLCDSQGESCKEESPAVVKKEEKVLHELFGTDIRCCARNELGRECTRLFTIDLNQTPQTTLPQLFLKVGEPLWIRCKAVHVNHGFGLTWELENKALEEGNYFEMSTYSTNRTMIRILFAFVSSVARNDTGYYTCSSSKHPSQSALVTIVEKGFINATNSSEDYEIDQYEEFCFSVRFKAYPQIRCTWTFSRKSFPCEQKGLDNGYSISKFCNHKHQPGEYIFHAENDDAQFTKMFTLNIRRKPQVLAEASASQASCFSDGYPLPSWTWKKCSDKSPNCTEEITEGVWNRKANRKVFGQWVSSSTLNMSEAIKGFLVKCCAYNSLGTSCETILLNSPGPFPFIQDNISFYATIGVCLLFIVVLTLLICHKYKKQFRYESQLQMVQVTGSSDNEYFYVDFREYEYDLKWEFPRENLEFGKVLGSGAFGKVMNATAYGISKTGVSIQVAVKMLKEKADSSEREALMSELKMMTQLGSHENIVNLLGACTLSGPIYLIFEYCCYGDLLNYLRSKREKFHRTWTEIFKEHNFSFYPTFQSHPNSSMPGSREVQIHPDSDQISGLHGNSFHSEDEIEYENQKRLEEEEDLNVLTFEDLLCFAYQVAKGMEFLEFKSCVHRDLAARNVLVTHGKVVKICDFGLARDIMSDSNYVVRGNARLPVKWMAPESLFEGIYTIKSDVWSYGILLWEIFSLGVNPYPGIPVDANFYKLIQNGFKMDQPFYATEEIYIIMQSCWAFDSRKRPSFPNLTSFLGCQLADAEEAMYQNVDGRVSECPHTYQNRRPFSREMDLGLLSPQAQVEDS
Nature of the assay: TR-FRET kinase activity assay, FLT3. The class given is biochemical. As to conditions: ATP at Km, 60 minutes. A digest of the protocol:
(§1)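 Buffer 50 mM HEPES pH 7.5/10 mM MgCl2/1 mM EGTA/0.01% Brij 35/1 mM DTT, RT. Km ATP per kinase, labeled peptide, 60 min; 12.5 mM EDTA stop; Eu-Ab 30 min dark; TR-FRET → IC50.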

Assay [2] addresses T2, MERTK (Homo sapiens, UniProt Q12866).
T2 sequence (Q12866 21-999): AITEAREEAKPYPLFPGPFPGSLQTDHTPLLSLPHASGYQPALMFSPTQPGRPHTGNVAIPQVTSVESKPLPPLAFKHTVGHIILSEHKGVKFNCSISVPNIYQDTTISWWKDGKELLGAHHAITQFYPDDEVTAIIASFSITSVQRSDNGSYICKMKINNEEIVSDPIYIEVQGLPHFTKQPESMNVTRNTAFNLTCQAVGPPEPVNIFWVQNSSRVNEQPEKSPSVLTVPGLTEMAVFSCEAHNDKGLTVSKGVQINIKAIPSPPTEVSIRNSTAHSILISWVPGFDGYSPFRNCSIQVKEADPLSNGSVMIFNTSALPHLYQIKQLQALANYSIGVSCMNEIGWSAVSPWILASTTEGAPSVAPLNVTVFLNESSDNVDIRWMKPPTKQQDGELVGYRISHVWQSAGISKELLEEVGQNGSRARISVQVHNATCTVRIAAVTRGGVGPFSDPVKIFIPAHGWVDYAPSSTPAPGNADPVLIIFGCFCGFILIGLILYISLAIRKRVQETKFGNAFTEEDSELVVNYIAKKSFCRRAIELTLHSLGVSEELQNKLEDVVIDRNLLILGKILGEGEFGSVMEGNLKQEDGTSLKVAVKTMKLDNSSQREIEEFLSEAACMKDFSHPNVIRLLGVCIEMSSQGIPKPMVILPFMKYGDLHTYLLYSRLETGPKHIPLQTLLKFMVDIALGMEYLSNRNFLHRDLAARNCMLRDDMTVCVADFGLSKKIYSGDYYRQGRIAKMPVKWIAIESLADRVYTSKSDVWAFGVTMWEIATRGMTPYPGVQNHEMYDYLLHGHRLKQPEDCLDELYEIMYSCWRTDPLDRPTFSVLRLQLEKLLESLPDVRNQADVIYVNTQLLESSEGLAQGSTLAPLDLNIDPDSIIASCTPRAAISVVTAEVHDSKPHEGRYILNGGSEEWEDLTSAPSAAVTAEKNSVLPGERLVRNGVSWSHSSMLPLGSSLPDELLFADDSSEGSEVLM
Nature of the assay: TR-FRET kinase activity assay, MERTK. The class given is biochemical. To be noted: for IC50: TR-FRET activity assay, ATP at Km, 60 minutes, read-out: Mer IC50; for Mer/Flt3 ratio (FLT3 IC50/Mer IC50): ratio calculated as FLT3 IC50/Mer IC50. A digest of the protocol: as §1

Consider `C[C@@H](CC(F)(F)F)Nc1ncc2c(OC3CCN(C)CC3)ncc([C@H]3CC[C@H](O)CC3)c2n1` [Compound 352], for which the IC50 in assay [1] lay within 1 to 10 µM. Besides, in assay [2], the IC50 is not above 0.1 µM and the “Mer/Flt3 ratio (FLT3 IC50/Mer IC50)” value is listed as “+++ (a ratio of >100)”.
Regarding `O=C(O)[C@H]1CC[C@@H](Nc2ncc3c(OC4CCOCC4)ncc([C@H]4CC[C@H](O)CC4)c3n2)CC1` [Compound 353], in assay [1], the IC50 was 1 to 10 µM. Also, in assay [2], the half-inhibitory concentration (IC50) was 1 to 10 µM; the “Mer/Flt3 ratio (FLT3 IC50/Mer IC50)” value was “+ (a ratio of >2.0 and <10)”.
Take `COC[C@H](C)Nc1ncc2c(O[C@@H]3CCOC3)ncc([C@H]3CC[C@H](O)CC3)c2n1` [Compound 354]: the figures for the 50% inhibitory concentration (IC50) in assay [1] and in assay [2] were 1 to 10 µM and not above 0.1 µM, respectively. Further, in assay [2], the “Mer/Flt3 ratio (FLT3 IC50/Mer IC50)” value is given as “+++ (a ratio of >100)”.

The term IC50 denotes the concentration needed to halve the response being measured.

The values above are taken from patent US20200291018A1, “TAM KINASE INHIBITORS” (SYROS PHARMACEUTICALS, INC., priority 2017, published 2020).
